The nature of data set [1]: ICG leakage measurements / thermal degradation in PBS. It is filed as physicochemical. As to conditions: 37° C. The procedure: The synthesis of ICG-NACs with ICG/PAH=0.04 was scaled up by 10 times. After washing with PBS solution, the precipitate was dispersed in PBS solution (2.6 mL) and split into 0.25 mL aliquots kept under constant shaking in the dark at either 23 or 37° C. Because of the long time scale of this study and the sensitivity of ICG to degradation in water, the suspension fluid was not analyzed for released ICG. Instead, the ICG contained within the ICG-NACs was quantified by inducing the disassembly of the ICG-NACs and immediately measuring the ICG concentration. Specifically, after a given aging time, each aliquot was centrifuged for 30 min and the concentrated precipitate suspension ([…]) was combined with 2.5 mL HNO3 solution (2 wt %). The resulting clear solution was then analyzed through UV-vis spectroscopy. As control samples, fresh ICG solution in PBS was prepared with a concentration close to that of the disassembled NAC solution (˜0.04 mg/mL) and incubated at 23 and 37° C. The samples were kept in the dark during aging.
The ICG content of ICG-NACs (ICG/amine ratio=0.04) was quantified as a function of time by dis-assembling the capsules and measuring the absorbance of free ICG concentration at 780 nm (FIG. 9). For ICG-NACs at 23° C., more than 96% of ICG was retained. […]

Data set [2] can be described thus: Laser-induced photothermal experiments (808 nm NIR diode laser). How it is done:
(§1) Washed ICG-NACs (0.5 mL, ˜1×10^7 particles/mL, ˜1×10^9 ICG molecules/particles, 0.007 wt % ICG of suspension) were suspended in PBS solution and placed in the wells of a 24 well polystyrene culture dish. Control samples were a 0.007 wt % PBS solution of ICG and PBS solution. Containing 0.5 mL of aqueous suspension or solution, each well was irradiated with a continuous-wave near-infrared diode laser (Coherent FAP-System, 54 W, λ=808 nm, irradiance (Io)) 155 W/cm^2) for various time intervals. The laser beam impinged on the sample with a 6.66 mm diameter. During irradiation, the sample temperature was monitored with a K-type thermocouple (bead diameter) 0.003 in., Omega Engineering) located 1 mm outside the laser spot and recorded using LabVIEW data acquisition software (National Instruments, Austin, Tex.). For the SEM study, 5 identical batches were prepared and irradiated for various times. Each sample was then washed twice with Nanopure water and dried at room temperature for SEM imaging. Viability Assessment of Cells Exposed to ICG-NACs. […] Cell survival was quantified using the Live/Dead viability assay (Molecular Probes). Dead cells were differentiated from live cells through fluorescence microscopy, as the former emitted red fluorescence (from the ethidium homodimer-1 dye precursor) and the latter emitted green fluorescence (from the calcein acetoxymethyl ester dye precursor). […]

Data set [3] has as its system fibroblasts (rat maxillary incisor pulp cells (RPC-C2A)). The experiment in a line: Viability assessment of cells exposed to ICG-NACs (Live/Dead viability assay). It is filed as cell-based. How it is done: as §1
For data set [4] the following is noted: cited from earlier work.
The subject of data set [5] is animal subjects. Particulars: cited from earlier work.
For data set [6] the following is noted: ICG concentration 0.001 mg/ml at 42° C.; cited from earlier work.

The source of these data is patent US8337809B2, “Charge-assembled capsules for phototherapy” (William Marsh Rice University, priority 2006, dated 2012).

The structures appear in SMILES notation. Bounds are passed on as bounds.

As for `CC1(C)C(/C=C/C=C/C=C/C=C2\N(CCCCS(=O)(=O)O)c3ccc4ccccc4c3C2(C)C)=[N+](CCCCS(=O)(=O)[O-])c2ccc3ccccc3c21` [ICG, indocyanine green], the “ICG lost at the end of 8 hr” value in data set [1] (PBS, dark, capsules ICG/amine ratio=0.04, free ICG ~0.04 mg/mL) is listed as ~35%. Also, in data set [1] (ICG solution in PBS, free ICG in PBS, calculated), the half-life (in general, how long it takes for the measured level to halve) is 19 h. In addition, in data set [2] (constant 808 nm irradiation, compared with ICG-NACs), the “photothermal heating response” value was “very similar heating curve”. Moreover, the “irradiation/cooling cycles in which the target temperature was reached” value in data set [2] (irradiated to ~51-54° C. (ICG-NACs 55° C.), cooled to 30° C., repeated, photodegradation stability) is recorded as 4 cycles. In data set [3], the “toxicity to fibroblast cells” value was “non-toxic”. Also, the “half-life of rapid clearance from the circulatory system” value in data set [4] (initial fast phase) was 3 to 4 min. For the same compound, in data set [4] (second, slower phase), the “half-life of much slower clearance rate” value is ≥ 1 h. For the same compound, the “semilethal dose LD50” value in data set [5] is 50 to 80 mg/kg. Also, the “published half-life of ICG” value in data set [6] was ~10 h.
